In US20080318943A1, “Compounds and Uses Thereof - 848” (ASTRAZENECA AB, priority 2007, published 2008):

Assays:
[1] = molecular target: T1, GABAA2 receptors (α2, β3, γ2 receptor subunits transfected into Sf9 cells) (Homo sapiens, UniProt P18507+P47869); experiment: GABAA2 Binding Method ([3H]-Flunitrazepam displacement); conditions: [3H]-Flunitrazepam ~2 nM, α2β3γ2 Sf9 membranes, 1 hr at 4° C.
T1 construct: host or cells: Sf9 cells (membranes)
Method in brief: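 Membranes from Sf9 cells expressing α2β3γ2 GABAA receptors incubated with ~2 nM (final) [3H]-flunitrazepam and test compound 1 h at 4 °C, then filtered on GF/B plates with cold-buffer washes. Flumazenil-defined controls; percent of control, IC50 and Ki calculated.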

GABAA receptor α1β2γ2 = molecular target: T2, GABAA receptor α1β2γ2 (Homo sapiens, UniProt P14867+P18507); experiment: Two-electrode voltage-clamp potentiation of GABA EC10 current in Xenopus oocytes, GABAA1; type: cell-based; conditions: percentage potentiation of GABA EC10 current divided by that of diazepam
T2 construct: expressed in transfected cells; host or cells: Xenopus laevis oocytes injected with cRNA
T2 sequence (P14867 28-456): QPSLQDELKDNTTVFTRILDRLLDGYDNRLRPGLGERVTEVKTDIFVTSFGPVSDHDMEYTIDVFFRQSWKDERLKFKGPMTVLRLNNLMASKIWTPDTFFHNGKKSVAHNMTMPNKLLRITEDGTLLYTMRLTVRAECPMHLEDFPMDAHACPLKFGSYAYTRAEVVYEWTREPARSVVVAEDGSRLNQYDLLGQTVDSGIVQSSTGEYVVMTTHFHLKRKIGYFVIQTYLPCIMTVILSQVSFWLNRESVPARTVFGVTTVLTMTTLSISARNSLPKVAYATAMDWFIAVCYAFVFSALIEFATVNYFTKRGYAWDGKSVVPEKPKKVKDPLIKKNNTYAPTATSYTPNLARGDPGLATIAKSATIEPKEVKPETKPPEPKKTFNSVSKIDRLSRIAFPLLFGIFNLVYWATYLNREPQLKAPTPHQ
T2 sequence (P47870 25-512 partner limits assumed): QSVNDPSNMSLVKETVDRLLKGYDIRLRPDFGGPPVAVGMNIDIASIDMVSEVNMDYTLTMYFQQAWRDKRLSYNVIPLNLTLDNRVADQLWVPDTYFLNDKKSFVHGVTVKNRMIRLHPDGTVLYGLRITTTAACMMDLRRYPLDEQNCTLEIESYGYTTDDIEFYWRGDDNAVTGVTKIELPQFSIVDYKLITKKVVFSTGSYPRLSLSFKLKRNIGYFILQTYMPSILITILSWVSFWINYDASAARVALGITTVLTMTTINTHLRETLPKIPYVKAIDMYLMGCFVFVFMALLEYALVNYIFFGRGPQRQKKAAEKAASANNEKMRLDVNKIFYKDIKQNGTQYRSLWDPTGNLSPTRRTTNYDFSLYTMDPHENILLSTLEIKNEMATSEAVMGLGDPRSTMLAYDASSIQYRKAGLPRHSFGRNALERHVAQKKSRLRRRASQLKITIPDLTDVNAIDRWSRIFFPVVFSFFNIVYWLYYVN
T2 sequence (P18507 40-475): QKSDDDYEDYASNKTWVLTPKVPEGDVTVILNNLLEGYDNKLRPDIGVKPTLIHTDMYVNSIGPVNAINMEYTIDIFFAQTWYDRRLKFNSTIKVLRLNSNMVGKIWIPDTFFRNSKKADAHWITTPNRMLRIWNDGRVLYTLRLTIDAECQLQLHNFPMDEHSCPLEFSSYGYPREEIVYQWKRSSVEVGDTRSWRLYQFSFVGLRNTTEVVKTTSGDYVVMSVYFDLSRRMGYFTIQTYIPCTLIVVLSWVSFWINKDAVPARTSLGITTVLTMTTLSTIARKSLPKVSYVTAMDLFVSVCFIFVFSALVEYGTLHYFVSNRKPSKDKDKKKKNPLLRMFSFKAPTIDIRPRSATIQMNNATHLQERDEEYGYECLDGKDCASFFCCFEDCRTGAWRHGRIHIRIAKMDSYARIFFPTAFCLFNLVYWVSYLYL
Method in brief: (§1)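 Human GABAA receptors expressed in Xenopus oocytes by cRNA injection (α:β:γ molar ratio ~1:1:10 for α1β2γ2, 1:1:1 for α2β3γ2), recorded 2-10 days later by two-electrode voltage clamp at −60 mV in ND-96, pH 7.5. Modulator preapplied 30 s before GABA at per-oocyte EC10. Peak-current percent potentiation over GABA alone, normalised to diazepam.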

GABAA receptor α2β3γ2 = molecular target: T3, GABAA receptor α2β3γ2 (Homo sapiens, UniProt P18507+P47869); experiment: Two-electrode voltage-clamp potentiation of GABA EC10 current in Xenopus oocytes, GABAA2; type: cell-based; conditions: percentage potentiation of GABA EC10 current divided by that of diazepam
T3 construct: expressed in transfected cells; host or cells: Xenopus laevis oocytes injected with cRNA
T3 sequence (P47869 29-451): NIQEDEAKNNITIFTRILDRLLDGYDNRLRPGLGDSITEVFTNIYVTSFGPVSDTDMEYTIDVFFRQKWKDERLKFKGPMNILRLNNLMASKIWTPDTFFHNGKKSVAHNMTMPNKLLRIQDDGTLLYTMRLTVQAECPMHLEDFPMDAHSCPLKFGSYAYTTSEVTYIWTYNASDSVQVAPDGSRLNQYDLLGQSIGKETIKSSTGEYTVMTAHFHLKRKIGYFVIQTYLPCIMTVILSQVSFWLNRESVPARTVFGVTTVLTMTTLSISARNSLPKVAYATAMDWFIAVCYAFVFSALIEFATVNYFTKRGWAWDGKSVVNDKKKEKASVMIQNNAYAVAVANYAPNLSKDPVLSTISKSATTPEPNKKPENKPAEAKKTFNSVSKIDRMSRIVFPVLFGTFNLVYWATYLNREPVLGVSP
T3 sequence (P28472 26-473 partner): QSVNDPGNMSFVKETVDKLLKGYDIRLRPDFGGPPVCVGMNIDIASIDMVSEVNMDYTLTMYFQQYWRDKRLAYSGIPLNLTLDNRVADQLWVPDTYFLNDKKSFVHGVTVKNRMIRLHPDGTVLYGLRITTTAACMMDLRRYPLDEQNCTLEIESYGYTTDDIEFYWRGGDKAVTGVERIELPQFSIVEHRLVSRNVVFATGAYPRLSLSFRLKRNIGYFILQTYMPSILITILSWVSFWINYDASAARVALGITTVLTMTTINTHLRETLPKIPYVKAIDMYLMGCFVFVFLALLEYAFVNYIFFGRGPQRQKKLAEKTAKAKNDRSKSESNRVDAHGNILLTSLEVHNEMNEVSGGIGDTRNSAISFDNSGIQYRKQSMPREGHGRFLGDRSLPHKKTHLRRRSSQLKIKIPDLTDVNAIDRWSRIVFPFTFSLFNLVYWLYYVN
T3 sequence (P18507 40-475): as the sequence (P18507 40-475) above
Method in brief: as §1

[2] = listed as 9-amino-6-fluoro-5-(2-fluoro-6-methoxyphenyl)-2-methyl-2,3-dihydro-1H-pyrrolo[3

T1 sequence (P47869 29-451): as the sequence (P47869 29-451) above
T1 sequence (P28472 26-473 partner): as the sequence (P28472 26-473 partner) above
T1 sequence (P18507 40-475): as the sequence (P18507 40-475) above

Structure (SMILES) | Ki [1] [nM] | Relative Potentiation for GABAA1 (GABAA receptor α1β2γ2) | Relative Potentiation for GABAA2 (GABAA receptor α2β3γ2) | Relative Potentiation for GABAA1 (GABAA receptor α1β2γ2; [2]) | Relative Potentiation for GABAA2 (GABAA receptor α2β3γ2; [2])
COc1ncccc1-c1c(F)ccc2c(N)c3c(nc12)CN(C1CC1)C3=O [Example 38, 9-Amino-2-cyclopropyl-6-fluoro-5-(2-methoxypyridin-3-yl)-2,3-dihydropyrrolo[3,4-b]quinolin-1-one] | 2.59 | 0.11 | 0.26 | – | –
COc1ccc(OC)c(CN2Cc3nc4c(-c5cnccc5OC)cccc4c(N)c3C2=O)c1 [Example 39, 9-Amino-2-(2,5-dimethoxybenzyl)-5-(4-methoxypyridin-3-yl)-2,3-dihydropyrrolo[3,4-b]quinolin-1-one] | 5.11 | 0.18 | 0.26 | – | –
COc1ccncc1-c1c(F)ccc2c(N)c3c(nc12)CN(C1CC1)C3=O [Example 41, 9-Amino-2-cyclopropyl-6-fluoro-5-(4-methoxypyridin-3-yl)-2,3-dihydropyrrolo[3,4-b]quinolin-1-one] | 2.35 | 0.13 | 0.28 | – | –
COc1ncc(-c2c(F)ccc3c(N)c4c(nc23)CN(C2CC2)C4=O)c(OC)n1 [Example 44, 9-Amino-2-cyclopropyl-5-(2,4-dimethoxypyrimidin-5-yl)-6-fluoro-2,3-dihydropyrrolo[3,4-b]quinolin-1-one] | 6.64 | 0.13 | 0.35 | – | –
CCN1Cc2nc3c(-c4ccccc4OC)c(F)ccc3c(N)c2C1=O [Example 45, 9-Amino-2-ethyl-6-fluoro-5-(2-methoxyphenyl)-2,3-dihydropyrrolo[3,4-b]quinolin-1-one] | 13.2 | −0.11 | 0.26 | – | –
CCN1Cc2nc3c(-c4cc(F)ccc4OC)c(F)ccc3c(N)c2C1=O [Example 46, 9-Amino-2-ethyl-6-fluoro-5-(5-fluoro-2-methoxyphenyl)-2,3-dihydropyrrolo[3,4-b]quinolin-1-one] | 17.3 | −0.008 | 0.3 | – | –
CCN1Cc2nc3c(-c4ccc(OC)c(OC)c4)c(F)ccc3c(N)c2C1=O [Example 47, 9-Amino-5-(3,4-dimethoxyphenyl)-2-ethyl-6-fluoro-2,3-dihydropyrrolo[3,4-b]quinolin-1-one] | 4.52 | 0.068 | 0.27 | – | –
COc1ccc(Cl)cc1-c1cccc2c(N)c3c(nc12)CN(C1CCC1)C3=O [Example 49, 9-Amino-5-(5-chloro-2-methoxyphenyl)-2-cyclobutyl-2,3-dihydropyrrolo[3,4-b]quinolin-1-one] | 2.53 | 0.12 | 0.58 | – | –
COc1ccc(-c2cccc3c(N)c4c(nc23)CN(C2CCC2)C4=O)c(OC)c1 [Example 53, 9-Amino-2-cyclobutyl-5-(2,4-dimethoxyphenyl)-2,3-dihydropyrrolo[3,4-b]quinolin-1-one] | 2.13 | 0.1 | 0.24 | – | –
CCCN1Cc2nc3c(-c4c(F)cccc4F)cccc3c(N)c2C1=O [Example 56, 9-Amino-5-(2,6-difluorophenyl)-2-propyl-2,3-dihydro-pyrrolo[3,4-b]quinolin-1-one] | 4.98 | 0.083 | 0.24 | – | –
CCN1Cc2nc3c(-c4cnccc4OC)cccc3c(N)c2C1=O [Example 57, 9-Amino-2-ethyl-5-(4-methoxypyridin-3-yl)-2,3-dihydropyrrolo[3,4-b]quinolin-1-one] | 21.4 | 0.079 | 0.26 | – | –
CCN1Cc2nc3c(-c4cccnc4OC)c(F)ccc3c(N)c2C1=O [Example 58, 9-Amino-2-ethyl-6-fluoro-5-(2-methoxypyridin-3-yl)-2,3-dihydropyrrolo[3,4-b]quinolin-1-one] | 4.08 | −0.055 | 0.28 | – | –
Nc1c2c(nc3c(-c4cc(Cl)ccc4Cl)cccc13)CN(C1CC1)C2=O [Example 59, 9-Amino-2-cyclopropyl-5-(2,5-dichlorophenyl)-2,3-dihydropyrrolo[3,4-b]quinolin-1-one] | 11.4 | 0.094 | 0.25 | – | –
COc1ccc(F)c(-c2cccc3c(N)c4c(nc23)CN(C2CC2)C4=O)c1 [Example 60, 9-Amino-2-cyclopropyl-5-(2-fluoro-5-methoxyphenyl)-2,3-dihydropyrrolo[3,4-b]quinolin-1-one] | 13.8 | 0.079 | 0.33 | – | –
COc1ccc(F)cc1-c1c(F)ccc2c(N)c3c(nc12)CN(C1CC1)C3=O [Example 61, 9-Amino-2-cyclopropyl-6-fluoro-5-(5-fluoro-2-methoxyphenyl)-2,3-dihydropyrrolo[3,4-b]quinolin-1-one] | 7.4 | 0.08 | 0.23 | – | –
COc1ccncc1-c1cccc2c(N)c3c(nc12)CN(C1CCC1)C3=O [Example 62, 9-Amino-2-cyclobutyl-5-(4-methoxypyridin-3-yl)-2,3-dihydropyrrolo[3,4-b]quinolin-1-one] | 1.84 | 0.09 | 0.44 | – | –

Now from value to molecule:

Ki [1] [nM] | Relative Potentiation for GABAA1 (GABAA receptor α1β2γ2) | Relative Potentiation for GABAA2 (GABAA receptor α2β3γ2) | Relative Potentiation for GABAA1 (GABAA receptor α1β2γ2; [2]) | Relative Potentiation for GABAA2 (GABAA receptor α2β3γ2; [2]) | Structure (SMILES)
3.52 | 0.038 | 0.25 | – | – | COc1ccccc1-c1cccc2c(N)c3c(nc12)CN(C1CCC1)C3=O [Example 63, 9-Amino-2-cyclobutyl-5-(2-methoxyphenyl)-2,3-dihydropyrrolo[3,4-b]quinolin-1-one]
3.81 | 0.06 | 0.31 | – | – | COc1ccc(-c2cccc3c(N)c4c(nc23)CN(C2CCC2)C4=O)c(OC)n1 [Example 64, 9-Amino-2-cyclobutyl-5-(2,6-dimethoxypyridin-3-yl)-2,3-dihydropyrrolo[3,4-b]quinolin-1-one]
2.68 | 0.092 | 0.2 | – | – | COc1ccc(CN2Cc3nc4c(-c5c(F)cccc5OC)cccc4c(N)c3C2=O)cc1OC [Example 65, 9-Amino-2-(3,4-dimethoxybenzyl)-5-(2-fluoro-6-methoxyphenyl)-2,3-dihydropyrrolo[3,4-b]quinolin-1-one]
35.1 | 0.056 | 0.33 | – | – | COc1ncccc1-c1cccc2c(N)c3c(nc12)CN(C1CC1)C3=O [Example 66, 9-Amino-2-cyclopropyl-5-(2-methoxypyridin-3-yl)-2,3-dihydropyrrolo[3,4-b]quinolin-1-one]
8.11 | – | – | 0.02 | 0.16 | COc1cccc(F)c1-c1c(F)ccc2c(N)c3c(nc12)CN(C)C3=O [Example 70, 9-Amino-6-fluoro-5-(2-fluoro-6-methoxyphenyl)-2-methyl-2,3-dihydropyrrolo[3,4-b]quinolin-1-one]
13.3 | 0.02 | 0.12 | – | – | CCN1Cc2nc3c(-c4cc(OC)ccc4F)cccc3c(N)c2C1=O [Example 72, 9-Amino-2-ethyl-5-(2-fluoro-5-methoxyphenyl)-2,3-dihydropyrrolo[3,4-b]quinolin-1-one]
0.973 | −0.036 | 0.12 | – | – | N#Cc1ccccc1-c1cccc2c(N)c3c(nc12)CN(C1CCC1)C3=O [Example 76, 2-(9-Amino-2-cyclobutyl-1-oxo-2,3-dihydro-1H-pyrrolo[3,4-b]quinolin-5-yl)benzonitrile]
0.74 | 0.088 | 0.42 | – | – | COc1cc(-c2cccc3c(N)c4c(nc23)CN(C2CCC2)C4=O)c(OC)nn1 [Example 84, 9-Amino-2-cyclobutyl-5-(3,6-dimethoxypyradazin-4-yl)-2,3-dihydropyrrolo[3,4-b]quinolin-1-one]
15.3 | 0.066 | 0.36 | – | – | COc1cc(-c2cccc3c(N)c4c(nc23)CN(C2CCC2)C4=O)c(C#N)cn1 [Example 96, 4-(9-Amino-2-cyclobutyl-1-oxo-2,3-dihydro-1H-pyrrolo[3,4-b]quinolin-5-yl)-6-methoxyniconitrile]
10.4 | 0.15 | 0.35 | – | – | Cc1nn(C)cc1-c1c(F)ccc2c(N)c3c(nc12)CN([C@@H]1CCOC1)C3=O [Example 97, 9-Amino-5-(1,3-dimethyl-1H-pyrazol-4-yl)-6-fluoro-2-(R)-tetrahydrofuran-3-yl-2,3-dihydropyrrolo[3,4-b]quinolin-1-one]
0.249 | 0.044 | 0.23 | – | – | COc1ccc(-c2c(F)ccc3c(N)c4c(nc23)CN(C2CCC2)C4=O)c(OC)c1 [Example 100, 9-Amino-2-cyclobutyl-5-(2,4-dimethoxyphenyl)-6-fluoro-2,3-dihydropyrrolo[3,4-b]quinolin-1-one]
